Measurements from ChEMBL document CHEMBL1152356, “Solving the confusion of gnaphaliin structure: gnaphaliin A and gnaphaliin B identified as active principles of Gnaphalium liebmannii with tracheal smooth muscle relaxant properties” (J Nat Prod, 2009).

Test: Vasorelaxant activity against carbachol chloride-induced contraction in guinea pig trachea treated 30 mins after carbachol chloride challenge
Assay type: functional, tissue-based, Cavia porcellus

| SMILES | EC50 (read-out: EC50) [µM] | EC50 [µg/mL] |
| --- | --- | --- |
| Cn1c(=O)c2[nH]cnc2n(C)c1=O [AMINOPHYLLINE] | 534 |  |
| COc1cc(O)c2c(=O)c(O)c(-c3ccccc3)oc2c1OC [GNAPHALIIN B] |  | 63.05 |
| COc1c(-c2ccccc2)oc2c(OC)c(O)cc(O)c2c1=O [GNAPHALIIN] |  | 43.1 |
